Data published in paper PMC5343665, “Cytochrome P450s in human immune cells regulate IL-22 and c-Kit via an AHR feedback loop” (Scientific Reports, 2017).

What was measured:
Type in all cases: cell-based
CYP1B1 = biological target: T1, CYP1B1 (Homo sapiens, UniProt Q16678); experiment: EROD (ethoxyresorufin deethylase) assay in V79 cells expressing human CYP1B1
T1 sequence (Q16678 1-543): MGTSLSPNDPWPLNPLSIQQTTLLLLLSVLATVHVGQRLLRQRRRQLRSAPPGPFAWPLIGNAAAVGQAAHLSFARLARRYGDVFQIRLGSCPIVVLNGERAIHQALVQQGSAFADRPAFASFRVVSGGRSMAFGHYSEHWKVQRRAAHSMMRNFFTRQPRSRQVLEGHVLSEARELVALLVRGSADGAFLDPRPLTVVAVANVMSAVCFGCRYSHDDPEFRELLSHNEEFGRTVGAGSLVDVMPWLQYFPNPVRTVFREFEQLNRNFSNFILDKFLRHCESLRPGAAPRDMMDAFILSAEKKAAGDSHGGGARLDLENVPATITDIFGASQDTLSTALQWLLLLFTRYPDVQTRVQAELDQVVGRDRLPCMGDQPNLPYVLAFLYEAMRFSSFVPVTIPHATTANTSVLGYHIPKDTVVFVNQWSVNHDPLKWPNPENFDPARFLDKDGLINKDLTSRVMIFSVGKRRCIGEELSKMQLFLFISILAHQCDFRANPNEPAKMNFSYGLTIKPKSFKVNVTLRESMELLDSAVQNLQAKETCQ

CYP1A2 = biological target: T2, CYP1A2 (Homo sapiens, UniProt P05177); experiment: EROD (ethoxyresorufin deethylase) assay in V79 cells expressing human CYP1A2
T2 sequence (P05177 2-516): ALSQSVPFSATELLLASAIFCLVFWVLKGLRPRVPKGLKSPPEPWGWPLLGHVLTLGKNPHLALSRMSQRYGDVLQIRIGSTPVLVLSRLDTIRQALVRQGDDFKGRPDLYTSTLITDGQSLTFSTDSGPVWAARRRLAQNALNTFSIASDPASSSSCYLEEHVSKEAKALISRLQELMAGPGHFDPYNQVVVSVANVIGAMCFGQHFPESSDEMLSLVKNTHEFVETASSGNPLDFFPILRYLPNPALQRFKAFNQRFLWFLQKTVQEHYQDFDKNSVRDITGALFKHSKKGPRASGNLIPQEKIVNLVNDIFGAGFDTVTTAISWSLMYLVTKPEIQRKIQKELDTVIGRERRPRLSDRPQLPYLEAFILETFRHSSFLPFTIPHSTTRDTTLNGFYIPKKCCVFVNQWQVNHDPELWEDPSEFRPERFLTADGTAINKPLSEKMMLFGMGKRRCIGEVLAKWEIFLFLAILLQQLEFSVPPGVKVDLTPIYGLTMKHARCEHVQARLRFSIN

CYP1A1 = biological target: T3, CYP1A1 (Homo sapiens, UniProt P04798); experiment: EROD (ethoxyresorufin deethylase) assay in V79 cells expressing human CYP1A1
T3 sequence (P04798 1-512): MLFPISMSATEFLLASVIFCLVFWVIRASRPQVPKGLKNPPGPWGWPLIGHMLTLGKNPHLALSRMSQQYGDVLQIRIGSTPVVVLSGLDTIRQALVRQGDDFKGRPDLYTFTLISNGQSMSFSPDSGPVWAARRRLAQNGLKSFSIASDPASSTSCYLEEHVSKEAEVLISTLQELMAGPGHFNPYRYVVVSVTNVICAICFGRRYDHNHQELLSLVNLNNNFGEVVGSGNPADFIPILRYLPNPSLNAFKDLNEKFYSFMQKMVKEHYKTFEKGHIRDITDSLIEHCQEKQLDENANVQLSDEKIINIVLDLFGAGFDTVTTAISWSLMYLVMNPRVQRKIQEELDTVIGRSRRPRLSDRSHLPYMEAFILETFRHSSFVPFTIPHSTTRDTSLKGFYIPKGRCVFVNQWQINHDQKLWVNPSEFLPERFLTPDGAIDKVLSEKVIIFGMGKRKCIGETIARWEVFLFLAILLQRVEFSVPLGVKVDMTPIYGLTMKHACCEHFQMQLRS

CC#Cc1ccc2ccc3cccc4ccc1c2c34 [1-PP, 1-(1-propynyl)-pyrene]
IC50 (CYP1B1): 218 nM | IC50 (CYP1A2): 650 nM | IC50 (CYP1A1): 5 nM
